Test results from article PMC4595804, “A strategy to discover decoy chemokine ligands with an anti-inflammatory activity” (Scientific Reports, 2015).

How the values were obtained:
CCL22 = biological target: T1, CCL22 (Homo sapiens, UniProt O00626); assay: TRIC-r calcium assay, neutraligand protocol: compound preincubated with CCL22, EGFP-CCR4+Gqi5+ HEK cells; type: cell-based; settings: for inhibition at 5 µM: compound 5 µM, read-out: Inhibition of CCL22 calcium responses (%)
T1 construct: codes for the mature CCL17 or CCL22 with an N-terminal thioredoxin-hexahistidin (TRX- (His)6) tag; thioredoxin (TRX) (N, cleaved yes); (His)6 (N, cleaved yes); made in house; host or cells: E. coli BL21 (DE3)
T1 sequence (O00626 25-93): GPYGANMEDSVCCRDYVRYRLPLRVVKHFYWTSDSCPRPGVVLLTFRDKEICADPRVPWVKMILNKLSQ
Experimental: EGFP-CCR4^+Gqi5^+HEKcells were loaded with fluorescent Ca^2+-indicator Indo-1 AM (5μM, Interchim) for 45 min at 37 °C. […] Cells (100,000 cells/well, 100μl) were seeded in black clear bottom 96-well plates (Greiner), and centrifuged at 250 × g for 5 min.
Two plates (96-well plates, Greiner) were prepared for the screen: one containing test compounds alone in order to determine their direct agonistic activity, and another one containing test compounds mixed with CCL17 or CCL22 at room temperature for 1 h (neutraligand protocol). The chemokines and test compounds were prepared at a 3× concentration, while digitonin was prepared at a 4× concentration. The CCR4 antagonist, C-021 served as control in the experiment. In the antagonist protocol, compounds were added to the cell plate (one compound per well) and incubated with cells for 30 min at room temperature, while the agonist (CCL17 or CCL22) was added to the ligand plate only.
Dye loaded cells were placed in the FlexStation 3 (Molecular Devices). […] For the primary screening, the ligands (50μl of chemokine mixed with DMSO or test compounds) were added to the cells at 40 s, followed by digitonin addition (50μl) at 100 s to the cells. Molecules were screened at a final concentration of 2μg/ml with 5 nM CCL17 or CCL22. […] The calcium response values (height of peak response over baseline) were determined. Hits were selected by comparing the response amplitude at the time of the chemokine addition ± test compound. The Z’ factor[29] was calculated according to the following equation: Z’ = 1-(3SD+ + 3SD−)/|Ave+ − Ave−|, where SD+ and Ave+ are respectively the standard deviation and the mean value of the positive controls (chemokine + DMSO), while SD− and Ave− are respectively the standard deviation and the mean value of the negative controls (HEPES-BSA (0.1%) mixed with DMSO, or cells mixed with C-021). Hit molecules were confirmed by performing concentration-response curves and their half maximal inhibitory concentration (IC50) values were calculated using the Kaleidagraph software.

CCR4+ HUT78 cells = assay: HUT78 chemotaxis: compounds alone or preincubated with the cells (antagonist protocol); type: cell-based, human; settings: for chemotactic activity of the compound by itself: HUT78 cells, no chemokine; for inhibition of CCR4+ HUT78 T cell migration, compound preincubated with the cells: receptor antagonist protocol, 1 μM, 3 nM CCL17 or CCL22
Experimental: Cell migration was carried out in RPMI1640-BSA (0.1%) using Transwell 96-well plates (Corning Costar, 5 μm pore size, polycarbonate membranes). […] Lower wells contained the same medium diluted with DMSO or chemokine (3 nM CCL17 or CCL22).
0.1% BSA using Transwell 96-well plates (Corning Costar, 5µm pore size, polycarbonate […]
the same medium diluted with DMSO or chemokine (3nM CCL17 or CCL22). In neutraligand inhibition studies, prior to their use, CCL17 (a) and CCL22 (b) were pre-incubated with […]
in the lower compartment. For characterization of the antagonist properties, the compounds were pre-incubated with the cells in the upper compartment. C-021 (1µM, stripped bars), the CCR4 receptor antagonist, was used as a control in both incubation protocols. Results are expressed as the percentage of cells that migrated to the lower chamber. Data represent the means±SD. Experiments were performed in triplicate.
(1 picture or pasted object on this page, not shown here)

[1] = tested on: Balb/c mice sensitized and challenged with OVA; assay: Mouse model of allergic eosinophilic airway inflammation (OVA), BAL cell counts; type: in vivo; settings: vs vehicle-treated OVA mice; for overall number of inflammatory cells in BALF: 350 μmol/kg I.P. 2 h before each challenge; for CD4+ T cells in BALF / CD11c+F4/80− dendritic cells in BALF / T cells in BALF / neutrophil counts in BALF / number of CD11c+F4/80+ macrophages in BALF / recruited eosinophils in BALF: 350 μmol/kg I.P.
Experimental: The differential number of cells recovered in BAL fluid 24 h after the last challenge was counted by flow cytometry. Live leukocytes were identified as CD45^+DAPI^− cells then differentiated into T cells (CD11b^lowCD19^−CD3^+), CD4^+T cells (CD11b^lowCD19^−CD3^+CD4^+), eosinophils (CD11b^+CD11c^−GR1^−), neutrophils (CD11b^+CD11c^−GR1^+), macrophages (CD11b^+GR1^−CD11c^+F4/80^+), dendritic cells (CD11b^+GR1^−CD11c^+F4/80^−).
Nine week-old male Balb/c mice (Janvier) were sensitized on days 1 and 7 by intraperitoneal injection of ovalbumin (OVA, 50μg, grade V, Sigma-Aldrich) adsorbed on aluminium hydroxide (2 mg, Sigma-Aldrich) in PBS. Mice were challenged intranasally with OVA (10 μg) in 25μl of saline on days 18–21. Control mice received intranasal administrations of saline alone. […] Animal experimentation was approved by the local ethics committee (Comité Régional d’Ethique en Matière d’Expérimentation Animale de Strasbourg CREMEAS) and carried out in accordance with the approved guidelines. Collection of the bronchoalveolar lavage fluid (BALF) was performed 24 h after the last OVA challenge as described previously. Cell counts were assessed by flow cytometry (LSRII® cytometer, BD bioscience). BAL cells were added with FCblock (5 μl, 553142, BD bioscience) in a black microplate, incubated for 20 min at room temperature. Then, marker antibodies were added: CD11c-FITC (557400, BD bioscience), Gr-1-Pe-eFluor610 (61-5931-82, eBioscience), CD11b-APC-Cy7 (557657, BD bioscience), CD45-AlexaFluor700 (103128, BioLegend), CD3-BV605 (564009, BD bioscience), CD4-PerCP-Cy5.5 (45-0042-82, eBioscience), F4/80-PE (12-4801-82, eBioscience). Antibodies were incubated for 30 min before DAPI (5 μl, BD bioscience) addition, and flow cytometry was performed immediately.

IC50 (CCL22; 5 nM CCL22 preincubated 1 h with compound, 21 °C, read-out: IC50 for CCL22 neutralization (calcium assay)) [µM] | inhibition at 2 µg/mL (CCL22; HEK293, 2 μg/ml compound preincubated 1 h with 5 nM CCL22, read-out: inhibition of CCL22-induced calcium responses (primary screen)) [%] | SMILES | inhibition at 5 µM (CCL22; HEK293) [%] | chemotactic activity of the compound by itself (CCR4+ HUT78 cells) | inhibition of CCR4+ HUT78 T cell migration, compound preincubated with the cells (CCR4+ HUT78 cells) | overall number of inflammatory cells in BALF [1] | CD4+ T cells in BALF [1] | CD11c+F4/80− dendritic cells in BALF [1] | T cells in BALF [1] | neutrophil counts in BALF [1] | number of CD11c+F4/80+ macrophages in BALF [1] | recruited eosinophils in BALF [1] | calcium response induced by WT CCL22 preincubated with compound (CCL22; 10 μM compound, 5 nM chemokine, remaining response)
11.6 ± 2.5 | 46 | O=C(OCC(O)CO)c1ccccc1O (centres unmarked) [GPN136, 2,3-dihydroxypropyl 2-hydroxybenzoate] | 35 ± 8 | devoid of chemotactic activity | no ability to inhibit | significantly reduced | significantly reduced | significantly reduced | significantly reduced | did not | not modified | significantly reduced | 
 |  | CC(C)=CCn1cnc2c1c(=O)n(C)c(=O)n2C [GPN279, 1,3-dimethyl-7-(3-methylbut-2-enyl)-1H-purine-2,6(3H, 7H)-dione] | 0 | devoid of chemotactic activity | no ability to inhibit | significantly reduced | significantly reduced | significantly reduced | significantly reduced | significantly inhibited | not modified | significantly reduced | neither inhibited WT nor CCL22 mutants
